Test [1] relates to pERK1/2(THR202/TYR204) level in SW620 cell line. In words: KRAS G12V pERK assay. Conditions: Homo sapiens, SW-620; SW620 cells, 2 hrs compound treatment, HTRF. Format: cell-based. The method, then: (§1) SW620 cell line was used in this study. Cells were maintained in RPMI 1640 supplemented with 10% fetal bovine serum (Thermo Fisher), 50 units/mL penicillin and streptomycin (Thermo Fisher) and kept at 37° C. in a humidified atmosphere of 5% CO2 in air. Cells were reinstated from frozen stocks that were laid down within 30 passages from the original cells purchased. 40000 cells per well were seeded into a 96-well plate and incubated overnight. Cells were treated with a 10-point dilution series. The final compound concentration is from 0 to 10 μM. After 2 hrs compound treatment, cells were lysed, and the pERK1/2(THR202/TYR204) level in the cell lysates was detected by HTRF kit (Cisbio). In brief, a total of 16 μL of cell lysate from each well of a 96-well plate was transferred to a 384-well white assay plate. Lysate from each well was incubated with 2 μL of Eu3+-cryptate (donor) labeled anti-phospho-ERK1/2 and 2 μL of D2 (acceptor) labeled anti-phospho-ERK1/2 antibodies (Cisbio) overnight in dark at room temperature. When donor and acceptor are in close proximity, excitation of the donor with laser triggers a Fluorescence Resonance Energy Transfer (FRET) towards the acceptor, which in turn fluoresces at 655 nm wavelength. FRET signals were measured using a PHERAstar FSX reader (BMG Labtech). IC50 determination was performed by fitting the curve of percent inhibition versus the log of the inhibitor concentration using Dotmatics.

For test [2], the system named is pERK1/2(THR202/TYR204) level in AsPC-1 cell line. Description: KRAS G12D pERK assay. Format: cell-based. Conditions: Homo sapiens, ASPC1, 2 h, AsPC-1 cells, 2 h compound treatment, HTRF. The method, then: as §1, with “AsPC-1” for “SW620”, “RPMI-1640” for “RPMI 1640”, “30000” for “40000”, “h” for “hrs”
For orientation: Time-resolved FRET reads energy transfer from a long-lived donor to a nearby acceptor.

Test [3] deals with ERK1/2 phosphorylation in SW1990 tumors. Description: SW1990 PD studies. Format: in vivo, Female NCG mice. Conditions: oral administration. How it is done: Female NCG mice were subcutaneously implanted with 5×10^6 SW1990 cells per 200 μL PBS/matrigel in the right flank. After inoculation, when tumors reached a mean volume of approximately 350-450 mm^3 in size, mice were randomized into treatment groups. Randomized mice would receive a single dose of vehicle consisting of 0.5% MC or test compounds at various dose (e.g. 30, 50, or 100 mg/kg) by oral administration. Plasma was collected at 0.5, 2, 4, and 7 hours, and tumor was collected at 7 hours after dosing to determine exposure levels. Tumor fragments were snap frozen in homogenization tubes with liquid nitrogen and homogenized with T-PER Tissue Protein Extraction Buffer with protease and phosphatase inhibitors added fresh before use. Tumor lysates were then analyzed for ERK1/2 phosphorylation.

In US20250262222A1, “HETEROCYCLIC COMPOUNDS, COMPOSITIONS THEREOF, AND METHODS OF TREATMENT THEREWITH” (BeiGene Switzerland GmbH, priority 2022, published 2025) one finds IC50 and oral pharmacodynamic effects data, which are given here for 13 compounds.

`C#Cc1c(F)ccc2cc(O)cc(-c3nc4c5c(nc(OC[C@@]67CCCN6C[C@H](F)C7)nc5c3F)N3CCOC[C@H]3CO4)c12` [Example 4, 5-ethynyl-6-fluoro-4-((S)-1-fluoro-11-(((2R,7aS)-2-fluorotetrahydro-1H-pyrrolizin-7a(5H)-yl)methoxy)-5a,6,8,9-tetrahydro-5H-4,7-dioxa-3,9a,10,12-tetraazabenzo[4,5]cyclohepta[1,2,3-de]naphthalen-2-yl)naphthalen-2-ol]: the IC50 – broadly, the concentration that gives 50% inhibition – in test [1] came out at 6.7 nM; in test [2], 76 nM. Consider `Nc1cc(Cl)c(C(F)(F)F)c(-c2nc3c4c(nc(OC[C@@]56CCCN5C[C@H](F)C6)nc4c2F)N2CCOC[C@@H]2CCO3)c1` [Example 16, 3-chloro-5-((S)-1-fluoro-12-(((2R,7aS)-2-fluorotetrahydro-1H-pyrrolizin-7a(5H)-yl)methoxy)-5,6,6a,7,9,10-hexahydro-4,8-dioxa-3,10a,11,13-tetraazabenzo[4,5]cycloocta[1,2,3-de]naphthalen-2-yl)-4-(trifluoromethyl)aniline], for which it took 24 nM to reach half-maximal inhibition in test [1] (IC50). This counts as double-digit nanomolar. For the compound `N#Cc1c(N)sc2c(F)ccc(-c3c(Cl)c4c5c(nc(OC[C@@]67CCCN6C[C@H](F)C7)nc5c3F)N3CCOC[C@@H]3CCO4)c12` [Example 18], half-maximal inhibition in test [1] (IC50) was put at 30 nM. On to `C#Cc1c(F)ccc2cc(O)cc(-c3nc4c5c(nc(OC[C@@]67CCCN6C[C@H](F)C7)nc5c3F)N3CCCOC[C@H]3CO4)c12` [Example 20, 5-ethynyl-6-fluoro-4-((S)-1-fluoro-12-(((2R,7aS)-2-fluorotetrahydro-1H-pyrrolizin-7a(5H)-yl)methoxy)-5a,6,9,10-tetrahydro-5H,8H-4,7-dioxa-3,10a,11,13-tetraazanaphtho[1,8-ab]heptalen-2-yl)naphthalen-2-ol], for which, in test [1], the IC50 amounted to 1.3 nM. Turning to `Nc1cc(Cl)c(C(F)(F)F)c(-c2nc3c4c(nc(OC[C@@]56CCCN5C[C@H](F)C6)nc4c2F)N2CCOCCC2CO3)c1` (stereo partly drawn) [Example 21, 3-chloro-5-(1-fluoro-12-(((2R,7aS)-2-fluorotetrahydro-1H-pyrrolizin-7a(5H)-yl)methoxy)-5,5a,6,7,9,10-hexahydro-4,8-dioxa-3,10a,11,13-tetraazanaphtho[1,8-ab]heptalen-2-yl)-4-(trifluoromethyl)aniline], the IC50 in test [1] is 74 nM. In test [1], `C#Cc1c(F)ccc2cc(O)cc(-c3nc4c5c(nc(OC[C@@]67CCCN6C[C@H](F)C7)nc5c3F)N3CCOCCC3CO4)c12` (stereo partly drawn) [Example 22, 5-ethynyl-6-fluoro-4-(1-fluoro-12-(((2R,7aS)-2-fluorotetrahydro-1H-pyrrolizin-7a(5H)-yl)methoxy)-5,5a,6,7,9,10-hexahydro-4,8-dioxa-3,10a,11,13-tetraazanaphtho[1,8-ab]heptalen-2-yl)naphthalen-2-ol] gave an IC50 of 13 nM. Take `Cc1cc(N)cc(-c2nc3c4c(nc(OCC5(C(F)F)COC5)nc4c2F)N2C[C@H]4CC[C@H](N4)[C@H]2CCO3)c1C(F)(F)F` [Example 26, 3-((6aR,7S,10R)-13-((3-(difluoromethyl)oxetan-3-yl)methoxy)-1-fluoro-5,6,6a,7,8,9,10,11-octahydro-4-oxa-3,11a,12,14,15-pentaaza-7,10-methanocyclohepta[4,5]cycloocta[1,2,3-de]naphthalen-2-yl)-5-methyl-4-(trifluoromethyl)aniline]: the IC50 in test [2] worked out at 142 nM. Moreover, the oral pharmacodynamic effects result in test [3] was “enhanced oral pharmacodynamic effects”. In test [2], `Cc1cc(N)cc(-c2nc3c4c(nc(OCC56COC(C5)C6)nc4c2F)N2C[C@H]4CC[C@H](N4)[C@H]2CCO3)c1C(F)(F)F` [Example 27, 3-((6aR,7S,10R)-13-((2-oxabicyclo[2.1.1]hexan-4-yl)methoxy)-1-fluoro-5,6,6a,7,8,9,10,11-octahydro-4-oxa-3,11a,12,14,15-pentaaza-7,10-methanocyclohepta[4,5]cyclo-octa[1,2,3-de]naphthalen-2-yl)-5-methyl-4-(trifluoromethyl)aniline] came in with an IC50 of 203 nM. Also, the oral pharmacodynamic effects entry in test [3] is “enhanced oral pharmacodynamic effects”. In the case of `Cc1cc(N)cc(-c2nc3c4c(nc(OCC56COC(C(F)F)(C5)C6)nc4c2F)N2C[C@H]4CC[C@H](N4)[C@H]2CCO3)c1C(F)(F)F` [Example 29, 3-((6aR,7S,10R)-13-((1-(difluoromethyl)-2-oxabicyclo[2.1.1]hexan-4-yl)methoxy)-1-fluoro-5,6,6a,7,8,9,10,11-octahydro-4-oxa-3,11a,12,14,15-pentaaza-7,10-methanocyclohepta[4,5]cyclo-octa[1,2,3-de]naphthalen-2-yl)-5-methyl-4-(trifluoromethyl)aniline], the IC50 in test [2] is 92 nM. In addition, in test [3], the oral pharmacodynamic effects entry is recorded as “enhanced oral pharmacodynamic effects”.

`Nc1cc(Cl)c(C(F)(F)F)c(-c2nc3c4c(nc(OCC5(C(F)F)COC5)nc4c2F)N2C[C@H]4CC[C@H](N4)[C@H]2CCO3)c1` [Example 32, 3-chloro-5-((6aR,7S,10R)-13-((3-(difluoromethyl)oxetan-3-yl)methoxy)-1-fluoro-5,6,6a,7,8,9,10,11-octahydro-4-oxa-3,11a,12,14,15-pentaaza-7,10-methanocyclohepta[4,5]cyclo-octa[1,2,3-de]naphthalen-2-yl)-4-(trifluoromethyl)aniline] displayed an IC50 in test [2] of 117 nM. The oral pharmacodynamic effects entry in test [3] is given as “enhanced oral pharmacodynamic effects”.

With `Nc1cc(Cl)c(C(F)(F)F)c(-c2nc3c4c(nc(OCC56COC(C(F)F)(C5)C6)nc4c2F)N2C[C@H]4CC[C@H](N4)[C@H]2CCO3)c1` [Example 35, 3-chloro-5-((6aR,7S,10R)-13-((1-(difluoromethyl)-2-oxabicyclo[2.1.1]hexan-4-yl)methoxy)-1-fluoro-5,6,6a,7,8,9,10,11-octahydro-4-oxa-3,11a,12,14,15-pentaaza-7,10-methanocyclohepta[4,5]cyclo-octa[1,2,3-de]naphthalen-2-yl)-4-(trifluoromethyl)aniline], inhibition in test [2] was half-maximal at 61 nM (IC50). In addition, in test [3], the oral pharmacodynamic effects result is on record as “enhanced oral pharmacodynamic effects”. In the same order, the values of `Nc1cc(Cl)c(C(F)(F)F)c(-c2nc3c4c(nc(OCC56CCC(CC5)OC6)nc4c2F)N2C[C@H]4CC[C@H](N4)[C@H]2CCO3)c1` [Example 40, 3-((6aR,7S,10R)-13-((2-oxabicyclo[2.2.2]octan-4-yl)methoxy)-1-fluoro-5,6,6a,7,8,9,10,11-octahydro-4-oxa-3,11a,12,14,15-pentaaza-7,10-methanocyclohepta[4,5]cyclo-octa[1,2,3-de]naphthalen-2-yl)-5-chloro-4-(trifluoromethyl)aniline] are 303 nM and “enhanced oral pharmacodynamic effects”. In the same order, the values of `Nc1cc(Cl)c(C(F)(F)F)c(-c2nc3c4c(nc(OCC56CCC(C5)OC6)nc4c2F)N2C[C@H]4CC[C@H](N4)[C@H]2CCO3)c1` [Example 41, 3-((6aR,7S,10R)-13-((2-oxabicyclo[2.2.1]heptan-4-yl)methoxy)-1-fluoro-5,6,6a,7,8,9,10,11-octahydro-4-oxa-3,11a,12,14,15-pentaaza-7,10-methanocyclohepta[4,5]cyclo-octa[1,2,3-de]naphthalen-2-yl)-5-chloro-4-(trifluoromethyl)aniline] are 112 nM and “enhanced oral pharmacodynamic effects”.
